Columns and labels:
[1] = system: Streptococcus pneumoniae R6; assay: Growth inhibition / lysis screening of planktonic cultures (OD550/600); format: cell-based; set-up: key: (+++) full inhibition; (++) partial inhibition; (+) growth retardation; -: (−) no effect; settings: S. pneumoniae R6, 50 and 100 μM compound added at early logarithmic phase (T1), OD550/600 followed 10 h, 37°C
Description: (§1) Planktonic cultures of selected pathogens (S. pneumoniae R6, S. pyogenes ^T, Staphylococcus aureus ^T, Escherichia coli DH10B, and Pseudomonas aeruginosa PAO1 strains) on early logarithmic-phase (T1) were assayed for their sensitivity to a broad range of DICAM compounds, as indicated in Table 1. Their bacteriostatic or lytic effect was first tested by measuring the variation of the OD550/600 as a function of time (10 h) when (50/100 μM) DICAMs were added, compared to untreated controls. The screening results, summarized in Table 1, evidenced that a potent antimicrobial activity may exist even when the negative charge of the peptide was higher than in the prototype compounds.
(§2) Susceptibility to DICAMs was first tested by growth-inhibition assays at 50 and 100 μM of compound. Briefly, working solutions at 5 mM or 10 mM DICAM in pure DMSO were prepared from DICAM stocks (40 mM in pure DMSO) and diluted with fresh culture medium to 5× the desired final concentration. Aliquots (50 µL) of these solutions were added to 200 µL of bacterium cultures grown to early exponential phase (OD550/600 c. a. 0.15–0.2 in sterile 96-well plates (Cultek, Spain). Incubation continued for 10 h at 37°C and turbidity (OD550/600) values were measured every 20 min to monitor growth and lysis, using a VersaMax microplate reader (Molecular Devices; United Kingdom). Next, the activity dependence on DICAM’s dose was examined by measuring the turbidity of treated and untreated cultures as a function of time. Also, the decay of bacterial viability (CFU/mL) at selected times of treatment was assessed by colony counting on LB-agar or TSA plates after overnight incubation at 37°C. By default, 10 μL of 10-fold serially diluted samples were plated, which set the lower detection limit at 10^2 CFU/mL (10^1 CFU/mL when 100 μL of the undiluted sample was seeded).

[2] = RP-HPLC retention time used to determine hydrophobicity; format: physicochemical; settings: analytical RP-HPLC, C18 Sunfire column (4.6 mm × 150 mm, 3.5 μm); A = 0.05% TFA in water, B = acetonitrile; 10% to 100% B in 20 min then isocratic 100% B 10 min; 217 and 254 nm; used as measure of hydrophobicity
Description: The purity of the lipopeptides was checked by analytical RP-HPLC on an Agilent Infinity instrument equipped with a Diode Array and a C18 Sunfire column (4.6 mm × 150 mm, 3.5 μm). As mobile phase A:B mixtures were used, where A = 0.05% TFA in water and B = acetonitrile. The samples were analyzed at 217 and 254 nm in a gradient from 10% of B to 100% of B in 20 min followed by isocratic 100% of B in 10 min.
Retention times were used to determine the hydrophobicity ([Neubauer et al., 2020]). HRMS (EI+) was carried out in an Agilent 6,520 Accurate-Mass Q-TOF LC/MS spectrometer using water/acetonitrile mixtures. Results can be found in Supplementary Section S3, S4.

[3] = system: Streptococcus pyogenes T; assay: Growth inhibition screening of planktonic cultures (OD550/600); format: cell-based; set-up: key: (+++) full inhibition; (++) partial inhibition; (+) growth retardation; -: (−) no effect; settings: S. pyogenes T, 50 and 100 μM compound added at T1, OD550/600 followed 10 h, 37°C
Description: as §1, §2

[4] = Calcein release from LUVs; settings: 10 μM DICAM, 25°C, vesicle buffer pH 7.4, calcein release
Description: LUVs were prepared for calceine liberation assays as described ([Chongsiriwatana and Barron, 2009]). Lipid composition (mole %) of LUVs was: POPG (100), POPG:CL (80:20), POPG:CL:DOPE ([…]), and POPG:CL:GlcDAG (75:5:20). Briefly, the nitrogen-dried lipid mixture was dissolved at 1.25 mM with 100 mM calceine in vesicle buffer (10 mM Tris, 140 mM NaCl, 0.5 mM EDTA, pH 7.4) followed by five thaw-freeze cycles. Calceine-entrapped LUVs were prepared by extrusion through 100 nm polycarbonate membranes (Avanti Polar Lipids). Non-entrapped calceine was separated from LUVs by gel filtration on a Sephacryl® S200-HR column (Sigma). LUVs permeabilization was monitored at 25°C by fluorescence emission at 550 nm (λex = 480 nm) as a function of time in a Fluoromax-4 spectrofluorometer (Horiba, France) using agitation. Signal stabilization of samples (1,500 µL vesicle buffer plus 45 µL LUVs) was recorded for 5 min before 10 µM final DICAM addition, and calcein release was monitored for a maximum of 20 min. After incubation, samples were solubilized in Triton X-100 (0.025%) and the fluorescence signal recorded thereafter was used to normalize the entire data set. Solubilization of DICAM-untreated LUVs in Triton X-100 was used as a positive control. No perturbation was detected in controls containing DMSO.

[5] = system: Pseudomonas aeruginosa PAO1; assay: Resting-cell viability (CFU) with 0.5 mM EDTA; format: cell-based; settings: P. aeruginosa PAO1, 100 µM compound, 3 h incubation
Description: (§3) Addition of tested compounds to the culture medium had little or no effect on bacterial growth, even at a concentration of 100 μM (Table 1). Since inactivity could arise from the inability of DICAMs to cross the outer membrane, we next tested their effect on bacterial suspensions in the absence or the presence of 0.5 mM EDTA, an outer membrane permeating agent. A decrease of approximately 90% in bacterial viability was observed after 3 h treatment with DICAM 2 and DICAM 4, compared to controls in EDTA-containing buffer (Supplementary Figure S5). No variations were found with the other compounds tested (Table 1), showing that only DICAMs containing Ala/Asn- Pro -Glu tripeptides were able to access the cell membrane and kill these pathogens when the outer membrane permeability was enhanced.
(§4) For activity assays on resting cells, bacteria grown to exponential phase (OD600 ≈ 0.3) were centrifuged and washed with 20 mM Tris-HCl (pH 7.5), adjusting the final OD600 to ≈0.6 (≈10^8 CFU/mL) with the same buffer. If required, EDTA (0.5 mM final concentration) was next added and the bacterial suspension was dispensed (225 µL per well) in 96-well plates, and then treated with 100 µM DICAM (25 µL). Samples were incubated at 37°C for 3 h and turbidity measurements were taken at selected intervals, also measuring the decay in cell viability at the end of incubation. Controls with buffer (with and without 1% DMSO), 100 µM DICAM, or 0.5 mM EDTA were run in parallel.

[6] = system: Escherichia coli DH10B; assay: Resting-cell viability (CFU) with 0.5 mM EDTA; format: cell-based; settings: E. coli DH10B, 100 µM compound, 3 h incubation
Description: as §3, §4

[7] = system: Escherichia coli DH10B; assay: Growth inhibition screening of planktonic cultures (OD550/600); format: cell-based; set-up: key: (+++) full inhibition; (++) partial inhibition; (+) growth retardation; -: (−) no effect; settings: E. coli DH10B, 50 and 100 μM compound added at T1, OD550/600 followed 10 h, 37°C
Description: as §1, §2

[8] = system: Pseudomonas aeruginosa PAO1; assay: as above; format: cell-based; set-up: key: (+++) full inhibition; (++) partial inhibition; (+) growth retardation; -: (−) no effect; settings: P. aeruginosa PAO1, 50 and 100 μM compound added at T1, OD550/600 followed 10 h, 37°C
Description: as §1, §2

[9] = system: S. pneumoniae D39; format: cell-based, Streptococcus pneumoniae
Text: First, the substitution of the fatty amino chain of 18 carbon atoms of the reference compound DICAM 2 by either an OMe group (methylated tripeptide DICAM 5) or an amine with 12 carbon atoms (DICAM 9) abolished the activity against all three pathogens. However, the activity remained intact when the chain of the fatty amine of prototypes DICAMs 1 and 4 was two carbon atoms shorter (DICAM 10 and DICAM 12, respectively), based on S. pneumoniae and S. pyogenes results. […] Third, Glu and Ala were tolerated as C-terminal residues of the lipotripeptides. […] In addition, deletion of the C-terminal Glu (DICAM 13) eradicated the activity against S. pneumoniae and S. aureus. However, a delay and small inhibition of S. pyogenes ^T growth was still observed. Fourth, Glu (DICAMs 19 and 20) and Orn (DICAMs 21 and 22) were tolerated as N-terminal residues, with the impact of these modifications being pathogen-dependent. […] SAR studies continued by measuring the dose dependence of DICAM’s activity at T1 with all the compounds found to be active against S. pyogenes or S. aureus in the initial screening, and all but one compound in the case of S. pneumoniae. The OD values of bacterial cultures were monitored after DICAM addition, and the decrease in the number of viable bacteria was measured relative to controls (Figures 4–6; Supplementary Figure S1). As antibacterial efficacy may decline with the bacterium dose in the inoculum ([Belley et al., 2009]; [Udekwu et al., 2009]; [Luca et al., 2013]), the assays were performed using the bacterial concentrations necessary for the fluorescence experiments in Section 2.3 (10^7–10^8 CFU/mL). At these high bacterial densities, MICs were determined as the DICAM concentration at which bacteria neither grow nor are killed (the stationary concentration (SC)), following [Udekwu et al., 2009]. By fitting the logarithmic plot of cell viability decrease vs. the DICAM dose to a Hill function (see Section 5.2.3.1) we were able to determine the maximum variation in viability (Δlogmax = ∆log f - ∆log 0, where ∆log f and ∆log 0 are the upper and lower limits of Δlog) in the assay conditions, the SC concentration (Δlog = 0), the dose required for half-variation in Δlogmax (K 1/2), and the cooperativity of the antimicrobial effect (N H).
as §2
As antibacterial efficacy may decline with the bacterium dose in the inoculum ([Belley et al., 2009]; [Udekwu et al., 2009]; [Luca et al., 2013]), activity assays were performed using the bacterial concentrations required for the fluorescence experiments in Section 2.3 (10^7–10^8 CFU/mL). At such bacterial densities, MICs were determined as the DICAM concentration at which bacteria neither grow nor are killed under assay conditions (the stationary concentration (SC)), as indicated in Section 2.2. […]

[10] = system: Staphylococcus aureus T; assay: Growth inhibition screening of planktonic cultures (OD550/600); format: cell-based; set-up: key: (+++) full inhibition; (++) partial inhibition; (+) growth retardation; -: (−) no effect; settings: S. aureus T, 50 and 100 μM compound added at T1, OD550/600 followed 10 h, 37°C
Description: as §1, §2

Row | Substance | Growth halt or lysis (50/100 μM), Spn [1] | Retention time [2] [min] | Growth halt or lysis (50/100 μM), Spy T [3] | Permeation of DOPE:POPG:CL (80:15:5) LUVs, result in words [4] | CFU's decay in the presence of 0.5 mM EDTA, Pa (data in parenthesis) [5] | CFU's decay in the presence of 0.5 mM EDTA, Ec (data in parenthesis) [6] | Growth halt or lysis (50/100 μM), Ec [7] | Growth halt or lysis (50/100 μM), Pa [8] | Reduction of the number of viable cells at saturating doses ([9]; S. pneumoniae D39, within 60 min) [log-units] | Reduction of the number of viable cells at 3 × SC, S. pneumoniae ([9]; after 1-h incubation at 3 × SC values) | Growth halt or lysis (50/100 μM), Sa T [10]
1 | Asn- Pro -Glu-OMe · HCl [DICAM 5] | - | 5.15 |  |  |  |  |  |  |  |  | 
2 | Cbz-Asn- Pro -Glu-NH-C12H25 [DICAM 9] | - | 15.80 |  |  |  |  |  |  |  |  | 
3 | Asn- Pro -Phe-NH-C18H37 · HCl [DICAM 7] | - | 22.21 | - | particularly effective |  |  |  |  |  |  | 
4 | Cbz-Ala- Pro -Trp-NH-C18H37 [DICAM 15] | - | 23.18 |  |  | (−) ((−) ≤ 0.3 log-units) | (−) ((−) ≤ 0.3 log-units) | - | - |  |  | 
5 | Ala- Pro -Glu-NH-C16H33 · HCl [DICAM 12] | +++ | 17.57 |  |  |  |  |  |  | ≥ 4.6 | 99.2%–99.8 | 
6 | Cbz-Asn- Pro -Glu(O^tBu)-NH-C18H37 [DICAM 8] | - |  |  |  |  |  |  |  |  |  | 
7 | Pro -Glu-NH-C18H37 · HCl [DICAM 18] | - | 19.54 |  |  |  |  | - | - |  |  | 
8 | Asn- Ala -Glu-NH-C18H37 · HCl [DICAM 17] | - | 18.63 | - |  | (−) ((−) ≤ 0.3 log-units) | (−) ((−) ≤ 0.3 log-units) | - | - |  |  | -
9 | Ala- Pro -Glu-NH-C12H25 · HCl [DICAM 11] | - | 15.29 |  |  |  |  |  |  |  |  | 
10 | Ala- Pro -Trp-NH-C18H37 · HCl [DICAM 16] | - | 21.04 | - |  | (−) ((−) ≤ 0.3 log-units) | (−) ((−) ≤ 0.3 log-units) | - | - |  |  | -
